Experiments:
GP2D (KRAS G12D) cells = assay: 2D cell viability assay (CellTiter-Glo); assay type: cell-based; conditions: GP2d, 96 h, 4 days
How it was run: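 GP2D (KRAS G12D) cells, 1000/well in RPMI + 10% FBS, were plated onto compound (1:3 DMSO series) and grown 4 days at 37 °C, 5% CO2 in 2D. CellTiter-Glo luminescence was read; EC50 is the concentration giving 50% signal decrease, from sigmoidal fit.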

AsPC-1 (KRAS G12D) cells = assay: 3D cell viability assay (spheroids, CellTiter-Glo 3D); assay type: cell-based; conditions: Homo sapiens, ASPC1, 96 h, AsPC-1 cells, 3D spheroids, 4 days
Protocol: Example C. 3D Cell Viability Assay
Compounds were tested in a 384-well format for their ability to inhibit the viability of AsPC-1 (KRAS G12D) cells in 3D assays. On day 0, 1000 cells/well (80 μL volume per well) in DMEM with 10% FBS, and Penicillin-Streptomycin-Glutamine were plated in 384-well Ultra-Low Attachment Spheroid Microplates (Corning, Catalog #3830) on the BioTEK EL406 liquid dispenser with a 5 μL dispensing cassette (BioTek 7170011). The plates were incubated at 37° C., 5% CO2 for 3 days to allow spheroid formation. On day 3, compounds were serially diluted (1:3) in DMSO. The Biomek FX was used to add 400 nL of test molecule per well. The plates were incubated at 37° C., 5% CO2 for 4 days before addition of CellTiter-Glo 3D (Promega, Catalog #9683) reagent and measurement of luminescence signal. EC50 values were defined as the compound concentration that causes a 50% decrease in luminescence signal and were calculated using a sigmoidal dose-response model to generate curve fits.

GDP-loaded KRAS G12D = GDP-loaded KRAS G12D (Homo sapiens (Human), UniProt P01116, G12D); assay: KRAS G12D (GDP) biochemical assay (TR-FRET probe displacement); assay type: binding; conditions: 2 hours
Sequence of GDP-loaded KRAS G12D (P01116-2 other isoform, or with tags, fused parts or gaps G12D): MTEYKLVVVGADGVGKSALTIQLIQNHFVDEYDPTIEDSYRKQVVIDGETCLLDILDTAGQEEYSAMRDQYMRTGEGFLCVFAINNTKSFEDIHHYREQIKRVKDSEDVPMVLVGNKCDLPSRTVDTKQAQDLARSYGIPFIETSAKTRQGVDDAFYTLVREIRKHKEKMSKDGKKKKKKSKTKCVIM
How it was run: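 Compound pre-incubated 30 min with GDP-loaded KRAS G12D in 50 mM Hepes pH 7.4, 150 mM NaCl, 5 mM MgCl2, 0.005% Tween-20, then Eu-streptavidin and TR-FRET probe added. After 2 h at room temperature, TR-FRET ratio read; IC50 is 50% ratio decrease, sigmoidal fit.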

| Compound | EC50 (GP2D (KRAS G12D) cells) [nM] | EC50 (AsPC-1 (KRAS G12D) cells) [nM] | IC50 (GDP-loaded KRAS G12D) [nM] |
| --- | --- | --- | --- |
| C#Cc1c(F)ccc2cccc(-c3nc4c5c(nc(OC[C@@]67CCCN6C[C@H](F)C7)nc5c3F)N3C[C@H]5CC[C@H](N5)[C@H]3CC4)c12 [Example 23, (5aR,6S,9R)-2-(8-ethynyl-7-fluoronaphthalen-1-yl)-1-fluoro-12-(((2R,7aS)-2-fluorotetrahydro-1H-pyrrolizin-7a(5H)-yl)methoxy)-4,5,5a,6,7,8,9,10-octahydro-3,10a,11,13,14-pentaaza-6,9-methanonaphtho[1,8-ab]heptalene] | 9 | 31 | 1 |
| Oc1cc(-c2nc3c4c(nc(OC[C@@]56CCCN5C[C@H](F)C6)nc4c2F)N2C[C@H]4CC[C@H](N4)[C@H]2CC3)c2ccccc2c1 [Example 24, 4-((5aR,6S,9R)-1-fluoro-12-(((2R,7aS)-2-fluorotetrahydro-1H-pyrrolizin-7a(5H)-yl)methoxy)-4,5,5a,6,7,8,9,10-octahydro-3,10a,11,13,14-pentaaza-6,9-methanonaphtho[1,8-ab]heptalen-2-yl)naphthalen-2-ol] | 17 | 190 | 1 |
| Oc1cc(-c2nc3c4c(nc(OC[C@@]56CCCN5C[C@H](F)C6)nc4c2F)N2C[C@H]4CC[C@H](N4)[C@H]2CC3)c2c(F)c(F)ccc2c1 [Example 27, 5,6-difluoro-4-((5aR,6S,9R)-1-fluoro-12-(((2R,7aS)-2-fluorotetrahydro-1H-pyrrolizin-7a(5H)-yl)methoxy)-4,5,5a,6,7,8,9,10-octahydro-3,10a,11,13,14-pentaaza-6,9-methanonaphtho[1,8-ab]heptalen-2-yl)naphthalen-2-ol] | 4 | 29 | 0.7 |
| C#Cc1c(F)c(F)cc2cc(O)cc(-c3nc4c5c(nc(OC[C@@]67CCCN6C[C@H](F)C7)nc5c3F)N3C[C@H]5CC[C@H](N5)[C@H]3CO4)c12 [Example 30, 5-ethynyl-6,7-difluoro-4-((5aS,6S,9R)-1-fluoro-12-(((2R,7aS)-2-fluorotetrahydro-1H-pyrrolizin-7a(5H)-yl)methoxy)-5a,6,7,8,9,10-hexahydro-5H-4-oxa-3,10a,11,13,14-pentaaza-6,9-methanonaphtho[1,8-ab]heptalen-2-yl)naphthalen-2-ol] | 11 | 260 | 0.2 |
| C#Cc1c(F)ccc2cc(O)cc(-c3nc4c5c(nc(OCC6(CN7CCCOCC7)CC6)nc5c3F)N3C[C@H]5CC[C@H](N5)[C@H]3CO4)c12 [Example 35, 4-((5aS,6S,9R)-12-((1-((1,4-oxazepan-4-yl)methyl)cyclopropyl)methoxy)-1-fluoro-5a,6,7,8,9,10-hexahydro-5H-4-oxa-3,10a,11,13,14-pentaaza-6,9-methanonaphtho[1,8-ab]heptalen-2-yl)-5-ethynyl-6-fluoronaphthalen-2-ol] | 6 | 17 | 0.3 |
| C#Cc1c(F)ccc2cc(O)cc(-c3nc4c5c(nc(OC[C@@]67CCCN6[C@H](COC(=O)N6CCCCCC6)CC7)nc5c3F)N3C[C@H]5CC[C@H](N5)[C@H]3CO4)c12 [Example 38, ((3S,7aS)-7a-((((5aS,6S,9R)-2-(8-ethynyl-7-fluoro-3-hydroxynaphthalen-1-yl)-1-fluoro-5a,6,7,8,9,10-hexahydro-5H-4-oxa-3,10a,11,13,14-pentaaza-6,9-methanonaphtho[1,8-ab]heptalen-12-yl)oxy)methyl)hexahydro-1H-pyrrolizin-3-yl)methyl azepane-1-carboxylate] | 28 | 47 | 0.3 |
| C#Cc1c(F)ccc2cc(O)cc(-c3nc4c5c(nc(OC[C@@]67CCCN6[C@H](COC(=O)N(C)C)CC7)nc5c3F)N3C[C@H]5CC[C@H](N5)[C@H]3CO4)c12 [Example 39, ((3S,7aS)-7a-((((5aS,6S,9R)-2-(8-ethynyl-7-fluoro-3-hydroxynaphthalen-1-yl)-1-fluoro-5a,6,7,8,9,10-hexahydro-5H-4-oxa-3,10a,11,13,14-pentaaza-6,9-methanonaphtho[1,8-ab]heptalen-12-yl)oxy)methyl)hexahydro-1H-pyrrolizin-3-yl)methyl dimethylcarbamate] | 48 | 96 | 0.4 |
| Oc1cc(-c2nc3c4c(nc(OC[C@@]56CCCN5C[C@H](F)C6)nc4c2F)N2C[C@H]4CC[C@H](N4)[C@H]2CC3)c2c(F)c(Cl)ccc2c1 [Example 40, 6-chloro-5-fluoro-4-((5aR,6S,9R)-1-fluoro-12-(((2R,7aS)-2-fluorotetrahydro-1H-pyrrolizin-7a(5H)-yl)methoxy)-4,5,5a,6,7,8,9,10-octahydro-3,10a,11,13,14-pentaaza-6,9-methanonaphtho[1,8-ab]heptalen-2-yl)naphthalen-2-ol] | 19 | 74 | 2 |
| Oc1cc(-c2nc3c4c(nc(OC[C@@]56CCCN5C[C@H](F)C6)nc4c2F)N2C[C@H]4CC[C@H](N4)[C@H]2CC3)c2c(OC(F)(F)F)c(F)ccc2c1 [Example 41, 6-fluoro-4-((5aR,6S,9R)-1-fluoro-12-(((2R,7aS)-2-fluorotetrahydro-1H-pyrrolizin-7a(5H)-yl)methoxy)-4,5,5a,6,7,8,9,10-octahydro-3,10a,11,13,14-pentaaza-6,9-methanonaphtho[1,8-ab]heptalen-2-yl)-5-(trifluoromethoxy)naphthalen-2-ol] | 3 | 8 | 0.6 |
| Oc1cc(-c2nc3c4c(nc(OC[C@@]56CCCN5C[C@H](F)C6)nc4c2F)N2C[C@H]4CC[C@H](N4)[C@H]2CO3)c2c(OC3CC3)c(F)ccc2c1 [Example 42, 5-cyclopropoxy-6-fluoro-4-((5aS,6S,9R)-1-fluoro-12-(((2R,7aS)-2-fluorotetrahydro-1H-pyrrolizin-7a(5H)-yl)methoxy)-5a,6,7,8,9,10-hexahydro-5H-4-oxa-3,10a,11,13,14-pentaaza-6,9-methanonaphtho[1,8-ab]heptalen-2-yl)naphthalen-2-ol] | 28 | 95 | 2 |
| C#Cc1c(F)ccc2cc(O)cc(-c3nc4c5c(nc(OC[C@@]67CCCN6[C@H](Cn6ccnn6)CC7)nc5c3F)N3C[C@H]5CC[C@H](N5)[C@H]3CO4)c12 [Example 49, 4-((5aS,6S,9R)-12-(((3S,7aS)-3-((1H-1,2,3-triazol-1-yl)methyl)tetrahydro-1H-pyrrolizin-7a(5H)-yl)methoxy)-1-fluoro-5a,6,7,8,9,10-hexahydro-5H-4-oxa-3,10a,11,13,14-pentaaza-6,9-methanonaphtho[1,8-ab]heptalen-2-yl)-5-ethynyl-6-fluoronaphthalen-2-ol] | 37 | 140 | 0.2 |
| C#Cc1c(F)ccc2cc(O)cc(-c3cc4c5c(nc(OC[C@@]67CCCN6C[C@H](F)C7)nc5c3F)N3C[C@H]5CC[C@H](N5)[C@H]3CC4)c12 [Example 52, 5-ethynyl-6-fluoro-4-((1S,4R,14aR)-10-fluoro-8-(((2R,7aS)-2-fluorotetrahydro-1H-pyrrolizin-7a(5H)-yl)methoxy)-1,2,3,4,5,13,14,14a-octahydro-1,4-epiminoazepino[1′,2′:1,7]azepino[2,3,4-de]quinazolin-11-yl)naphthalen-2-ol] | 1 | 7 | 0.1 |

— patent US20230339981A1, “KRAS G12D MODULATING COMPOUNDS” (priority 2022, published 2023)
